Test results published in patent publication US4299970A, “Oxy-alkylamino carboxylic esters” (Beecham Group Limited, priority 1974, dated 1981).
pIC50: −log10 of the molar value. ≈ marks a conversion by molar mass, not a printed value. Where two headings read alike, the source gives them in different places.

What was measured:
[1] = system: histamine-induced asphyxic collapse; experiment: protection against aerosol administered, histamine-induced asphyxic collapse; type: in vivo, guinea pig
From the text: b. The compounds were examined for their ability to protect against aerosol administered, histamine-induced asphyxic collapse in guinea pigs.
M. A. Wasserman and R. L. Griffen, (1975), Am. Rev. Resp. Dis., 111, 946.

arterial blood pressure = experiment: effect on arterial blood pressure in the anaesthetised, normotensive rat; type: in vivo; details: intravenous, dose range 0.001 → 1.0 mg/kg
Experimental: a. The effect of the compounds on arterial blood pressure was determined in the anaesthetised, normotensive rat. The rat preparation was similar to that desribed in "Pharmacological experiments on intact preparations", E. and S. Livingstone, Edinburgh and London, 1970, p. 63.
The active compounds were predominantly depressor agents in the normotensive rat.

gastric acid secretion = experiment: inhibition of gastric acid secretion in the pyloric ligated rat (Shay rat preparation); type: in vivo; details: for ED50: sc
From the text: b. The compounds were examined for their ability to inhibit gastric acid secretion in the pyloric ligated rat model (Shay rat preparation).
H. Shay, S. A. Komarov, S. S. Fels, D. Merance, M. Gruenstein and H. Siplet, (1945), Gastroenerology, 5, 43.

[2] = system: femoral artery of the hind limb; experiment: vasodilator activity in femoral artery of the hind limb (vascular resistance); type: in vivo, beagle dog; details: dose range of 0.01-1 mg/kg, intra-arterially
Experimental: (§1) b. The vasodilator activity of the compounds was determined in the femoral artery of the hind limb of the anaesthetised beagle dog. The method used was similar to that described by J. Nakano and J. R. McCurdy, (1967), J. Pharmac. Exp. Ther., 156, 538.
The compounds were administered into the iliac artery and the effects on both flow and pressure in the hind limb were recorded. Changes in vascular resistance (R) were calculated from the following expression: [formula]

[3] = system: 5-hydroxy-tryptamine-induced bronchoconstriction; experiment: inhibition of 5-hydroxytryptamine-induced bronchoconstriction (Konsett-Rossler preparation); type: in vivo, guinea pig; details: Cavia porcellus; intravenous, 2 minutes prior to 5-hydroxytryptamine dose
Experimental: a. The compounds were examined for their ability to inhibit 5-hydroxy-tryptamine-induced bronchoconstriction in the anaesthetised, artifically respired guinea pig (Konsett-Rossler preparation).
H. Konsett and R. Rossler, (1940), Naunyn-Schneidebergs Arch. Exp. Path. Pharmak., 195, 71.
After preparation of the guinea pig, a dose of 5-hydroxytryptamine producing an adequate response was determined by dosing, i.v., every 6 minutes. This dose was usually 10 μg. After a standard response was obtained, compounds were given intra-venously 2 minutes prior to the next standard dose and dosing of 5-hydroxytryptamine was continued every 6 minutes until the response returned to control values.

[4] = system: guinea pig platelet aggregation induced by ADP; experiment: inhibition of guinea pig platelet aggregation induced in vitro by ADP; type: cell-based; details: Cavia porcellus, ADP 5.45×10^-7 M, platelet rich plasma, 37° C.
Experimental: a. The compounds were examined for their ability to inhibit guinea pig platelet aggregation induced, in vitro, by 5.45×10^-7 M adenosine diphosphate (ADP).
The method consisted of diluting the compound immediately before use from a 10 mg/ml solution in ethanol to a 1 mg/ml solution with saline and then adding the appropriate volume to 0.5 ml of platelet rich plasma. The mixture was stirred at 37° C. for 1 minute before 25 μl of an ADP solution was added to give a final ADP concentration of 5.45×10^-7 M. The aggregation response was then recorded relative to the control.

[5] = system: gastric acid secretion, stimulated by pentagastrin infusion; experiment: inhibition of pentagastrin-stimulated gastric acid secretion, chronic fistula rat preparation; type: in vivo; details: 2-5 mg/kg, s.c.
From the text: c. The compounds were examined for their ability to inhibit gastric acid secretion, stimulated by pentagastrin infusion, in the chronic fistula rat preparation.
P. H. Guth and R. Mendick, (1965), Amer. J. Gastroenterology, 44, 545.

[6] = system: total peripheral resistance; experiment: total peripheral resistance, intravenous; type: in vivo, beagle dog; details: dose range of 0.01-10 mg/kg, intra-venously
Experimental: as §1
In other experiments the compounds were administered into the left femoral vein and the right femoral arterial pressure and cardiac output were monitored. From these experiments, total peripheral resistance (TPR) was calculated from the expression: [formula]

[7] = system: indomethacin-induced ulcer; experiment: indomethacin-induced ulcer test in fasted rats; type: in vivo, rat; details: 20 mg/kg, s.c., twice; 5 hour test; indomethacin 50 mg/kg, i.p.
Experimental: d. Anti-ulcer activity was determined in a 5 hour indomethacin-induced (50 mg/kg, i.p.) ulcer test in fasted rats. Compound 63 inhibited ulceration by 71% when given at 20 mg/kg, s.c., twice during the course of the test.

[8] = system: pentagastrin-stimulated gastric acid secretion; experiment: inhibition of pentagastrin-stimulated gastric acid secretion, anaesthetised perfused rat stomach (Ghosh and Schild preparation); type: in vivo; details: intravenous
From the text: a. The compounds were examined for their ability to inhibit pentagastrin-stimulated gastric acid secretion in the anaesthetised, perfused rat stomach preparation (Ghosh and Schild preparation).
M. N. Ghosh and H. O. Schild, (1958), Brit. J. Pharmacol, 13, 54.
The compounds were given intravenously.

[9] = system: gerbil colon; contraction to prostaglandin F2α; experiment: prostaglandin antagonist activity on the isolated perfused gerbil colon (contraction to prostaglandin F2α); details: Meriones unguiculatus; reduction of contraction to prostaglandin F2α; one minute pre-contact time
Experimental: (§2) The compounds were tested for prostaglandin-like and for prostaglandin antagonist activity on the isolated perfused gerbil colon preparation (smooth muscle). This has been shown by J. R. Weeks, J. R. Schultz and W. E. Brown, (1968), J. App. Physiol, 25, 783, to have greater precision and sensitivity than other preparations. A 15 mm portion of the descending colon is suspended in an organ bath and perfused with De Jalon's saline at 32° C. Compounds were given in a three minute cycle with a 45 second contact time and a 15 second washout time. Antagonist compounds were given with a one minute pre-contact time.
Antagonist activity was determined by measuring the percentage reduction of the contraction to two standard doses of prostaglandin F2α which gave responses between 20% and 80% of maximum response.

[10] = system: human platelet aggregation induced by collagen; experiment: inhibition of human platelet aggregation induced in vitro by collagen; type: cell-based; details: 10^-4 M, collagen, platelet rich plasma, 37° C.
Experimental: b. The compounds were examined for their ability to inhibit human platelet aggregation induced, in vitro, either by adenosine diphosphate (ADP) or collagen. The compounds were added in saline or dimethylformamide to platelet rich plasma at 37° C. to give a final concentration of 10^-4 M. After 3 minutes the platelets were challenged with ADP or collagen. The aggregation response was then recorded relative to the control.

antifertility activity = antifertility activity in female mice; type: in vivo; details: 50-100 mg/kg, s.c.; 5 days pre-coitally and 10 days post-coitally
Experimental: Antifertility activity was determined by subcutaneous dosing of female mice for 5 days pre-coitally and 10 days post-coitally. Three female mice per group were used and these were mated with males of proven fertility and mating confirmed by examination for copulation plugs.

gerbil colon = experiment: prostaglandin-like activity on the isolated perfused gerbil colon; details: De Jalon's saline, 32° C.
Experimental: as §2
Prostaglandin-like activity was determined using the method of H. O. Schlid, (1942), J. Physiol., 101, 115, which is a standard 4×4 latin square assay. Some of the compounds stimulated the gerbil colon to contract which is a prostaglandin-like effect, and the results are shown in Table 15.

[11] = subcutaneously twice, 3 hour Shay rat preparation

SMILES: CCCCCCC(C)(O)CCN1C(=O)CC(=O)C1CCCCCCC(=O)OCC (stereo not shown) [Compound 63, 2-(6'-Ethoxycarbonyl-n-hexyl)-1-(3"-hydroxy-3"-methyl-n-nonyl)-pyrrolidin-3,5-dione]
- protecting against histamine challenge [1]: very effective
- % Depression at 1 mg/kg (arterial blood pressure): 60%
- activity when given intraduodenally (gastric acid secretion; intraduodenally, Shay rat preparation): active
- ED50 (gastric acid secretion; subcutaneously once, 3 hour Shay rat preparation, at the time of ligation, read-out: ED50, given once): 5.3 mg/kg
- ED50 (gastric acid secretion; subcutaneously twice, 3 hour Shay rat preparation, at time of ligation and 1.5 hours after, read-out: ED50, given twice): 2.25 mg/kg
- H^+ concentration (gastric acid secretion; [11]): decreasing the H^+ concentration
- total titratable acidity in the stomach (gastric acid secretion; [11]): lowered the total titratable acidity in the stomach
- volume of secretion (gastric acid secretion; [11]): inhibiting the volume of secretion
- vascular resistance [2]: decreased vascular resistance
- ED50 [3]: 0.008 mg/kg
- pIC50 [4]: 5.89
- inhibiting acid secretion [5]: very effective
- total peripheral resistance (TPR) [6]: decreased total peripheral resistance
- inhibition of ulceration [7]: 71%
- ED50 [8]: 0.09 mg/kg

SMILES: CCCCCCC(C)(O)CCN1C(=O)CC(O)C1CCCCCCC(=O)OCC (stereo not shown) [Compound 86]
- ED50 [3]: 0.505 mg/kg
- pIC50 [4]: 4.26

SMILES: CCCCCCC(O)CCN1C(=O)CC(O)C1CCCCCCC(=O)OCC (stereo not shown) [Compound 98]
- IC50 [9]: 2.15 µg/mL (≈ 5.38 µM)

SMILES: CCCCCC(C)C(C)(O)CCN1C(=O)CCC(=O)C1CCCCCCC(=O)OCC (stereo not shown) [Compound 60]
- pIC50 [4]: 4.96
- ED50 [8]: 1 mg/kg

SMILES: CCCCCCC(O)CCN1CCCC(O)C1CCCCCCCO (stereo not shown) [Compound 105]
- inhibition at 100 µM [10]: 78%
- % Depression at 1 mg/kg (arterial blood pressure): 20%

SMILES: CCCCCCCCN1CCCC(O)C1CCCCCCC (stereo not shown) [Compound 112, 2-n-heptyl-3-hydroxy-1-n-octyl-piperidine]
- inhibition at 100 µM [10]: 77%
- vascular resistance [2]: decreased vascular resistance
- total peripheral resistance (TPR) [6]: decreased total peripheral resistance
- antifertility activity (antifertility activity): active

SMILES: CCCCCC(O)CCN1C(=O)CC(O)C1CCCCCCC(=O)OCC (stereo not shown) [Compound 76, 2-(6'-ethoxycarbonyl-n-hexyl)-3-hydroxy-1-(3"-hydroxy-n-octyl)-pyrrolidin5-one]
- inhibition at 100 µM [10]: 79%
- pIC50 [4]: 3.83

SMILES: CCCCCCC(O)(CC)CCN1C(=O)CC(=O)C1CCCCCCC(=O)OCC (stereo not shown) [Compound 68, 2-(6'-Ethoxycarbonyl-n-hexyl)-1-(3"-hydroxy-3"-ethyl-n-nonyl)-pyrrolidin-3,5-dione]
- pIC50 [4]: 5.40

SMILES: CCCCCCCCN1C(=O)CCC(O)C1CCCCCCC (stereo not shown) [Compound 99, 2-n-Heptyl-3-hydroxy-1-n-octyl-piperidin-6-one]
- IC50 [9]: 1.55 µg/mL (≈ 4.76 µM)

SMILES: CCCCCC(C)(O)CCN1C(=O)CC(=O)C1CCCCCCC(=O)OCC (stereo not shown) [Compound 62, 2-(6'-Ethoxycarbonyl-n-hexyl)-1-(3"-hydroxy-3"-methyl-n-octyl)-pyrrolidin-3,5-dione]
- % Depression at 1 mg/kg (arterial blood pressure): 70%
- ED50 [3]: 0.088 mg/kg
- pIC50 [4]: 4.70
- ED50 [8]: 0.72 mg/kg

SMILES: CCCCCC(CCN1C(=O)CC(O)C1CCCCCCC(=O)OCC)OCc1ccccc1 (stereo not shown) [Compound 81]
- IC50 [9]: 0.17 µg/mL (≈ 0.357 µM)

SMILES: CCCCCCCC(C)(O)CCN1C(=O)CC(=O)C1CCCCCCC(=O)OCC (stereo not shown) [Compound 64, 2-(6'-Ethoxycarbonyl-n-hexyl)-1-(3"-hydroxy-3"-methyl-n-decyl)-pyrrolidin-3,5-dione]
- protecting against histamine challenge [1]: very effective
- ED50 [3]: 0.011 mg/kg
- pIC50 [4]: 5.05

SMILES: CCCCCCC(O)CCN1C(=O)CCC(=O)C1CCCCCCC(=O)OCC (stereo not shown) [Compound 78]
- inhibition at 100 µM [10]: 65%
- % Depression at 1 mg/kg (arterial blood pressure): 30%

SMILES: CCCCCC(CCN1CCCC(O)C1CCCCCCCO)OCc1ccccc1 (stereo not shown) [Compound 104, 1-(3'-Benzyloxy-n-octyl)-3-hydroxy-2-(7"-hydroxy-n-heptyl)piperidine]
- IC50 [9]: 0.11 µg/mL (≈ 0.254 µM)

SMILES: CCCCCC(O)CCN1C(=O)CC(=O)C1CCCCCCC(=O)OCC (stereo not shown) [Compound 75, 2-(6'-ethoxycarbonyl-n-hexyl)-1-(3"-hydroxy-n-octyl)-pyrrolidin-3,5-dione]
- inhibition at 100 µM [10]: 61%
- Concentration/ml. for contractions (gerbil colon): 0.2 to 0.5 µg/mL

SMILES: CCCCCCC(O)CCN1C(=O)CC(=O)C1CCCCCCC(=O)OCC (stereo not shown) [Compound 77, 2-(6'-ethoxycarbonyl-n-hexyl)-1-(3"-hydroxyn-nonyl)-pyrrolidin-3,5-dione]
- % Depression at 1 mg/kg (arterial blood pressure): 30%
- ED50 [3]: 0.38 mg/kg
- pIC50 [4]: 5.27
- ED50 [8]: 2.6 mg/kg

SMILES: CCCCCCC(O)CCN1CCC(O)C1CCCCCCCO (stereo not shown) [Compound 108]
- antifertility activity (antifertility activity): active

SMILES: CCCCCC(O)CCN1CCC(O)C1CCCCCCCO (stereo not shown) [Compound 102]
- inhibition at 100 µM [10]: 71%
- Concentration/ml. for contractions (gerbil colon): 0.04 to 0.10 µg/mL

SMILES: CCCCCC(CCN1C(=O)CCC(O)C1CCCCCCC(=O)OCC)OCc1ccccc1 (stereo not shown) [Compound 79]
- IC50 [9]: 0.76 µg/mL (≈ 1.55 µM)

SMILES: CCCCCCC(C)(O)CCN1C(=O)CCC(=O)C1CCCCCCC(=O)OCC (stereo not shown) [Compound 56]
- pIC50 [4]: 4.29

SMILES: CCCCCC(O)CCN1CCCC(O)C1CCCCCCCO (stereo not shown) [Compound 100]
- Concentration/ml. for contractions (gerbil colon): 0.01 to 0.02 µg/mL

SMILES: CCOC(=O)CCCCCCC1C(=O)CCC(=O)N1CCCO (stereo not shown) [Compound 74]
- Concentration/ml. for contractions (gerbil colon): 4 to 8 µg/mL

SMILES: CCOC(=O)CCCCCCC1C(O)CCC(=O)N1CCCOCc1ccccc1 (stereo not shown) [Compound 80]
- IC50 [9]: 3.1 µg/mL (≈ 7.39 µM)

SMILES: OCCCCCCCC1C(O)CCCN1CCCOCc1ccccc1 (stereo not shown) [Compound 103]
- IC50 [9]: 0.35 µg/mL (≈ 0.963 µM)

SMILES: CCCCCC(CCN1CCC(O)C1CCCCCCCO)OCc1ccccc1 (stereo not shown) [Compound 101]
- Concentration/ml. for contractions (gerbil colon): 0.04 to 0.10 µg/mL

SMILES: CCCCCCCC(C)(O)CCN1C(=O)CCC(=O)C1CCCCCCC(=O)OCC (stereo not shown) [Compound 57, 2-(6'-Ethoxycarbonyl-n-hexyl)-1-(3"-hydroxy-3"-methyl-n-decyl)-piperidin-3,6-dione]
- ED50 [3]: 0.253 mg/kg
